Results taken from patent US11312727B1, “Macrocyclic flu endonuclease inhibitors” (Janssen BioPharma, Inc., priority 2018, dated 2022).

Columns and labels:
[1] = system: Influenza strain A549 A/WSN/33 (H1N1); assay: microbe, parasite or virus in culture; type: cell-based; settings: Influenza A virus, A549, 20 h, A549 cells, influenza A/WSN/33 (H1N1), 20 hours incubation; read-out: A549_A(H1N1) EC50
in vitro = settings: human, CC50, uninfected A549 cells, CellTiter-Glo

| Compound | EC50 [1] [nM] | CC50 (in vitro) [nM] |
| --- | --- | --- |
| O=C1c2c(O)c(=O)ccn2N2CN1C/C=C\COc1c(Cl)cccc1[C@H]2c1ccccc1 (single isomer, unassigned) [Compound 75A, (18*R,Z)-4-chloro-12-hydroxy-18-phenyl-6,9-dihydro-18H-10,17-methanobenzo[b]pyrido[1,2-f][1]oxa[5,6,9]triazacyclotridecine-11,13-dione] | 269 | > 2000 |
| O=C1c2c(O)c(=O)ccn2N2CN1C/C=C\COc1c(Cl)cccc1[C@@H]2c1ccccc1 (single isomer, unassigned) [Compound 75B, (18*S,Z)-4-chloro-12-hydroxy-18-phenyl-6,9-dihydro-18H-10,17-methanobenzo[b]pyrido[1,2-f][1]oxa[5,6,9]triazacyclotridecine-11,13-dione] | 3 | > 200 |
| O=C1c2c(O)c(=O)ccn2N2CN1CC/C=C/COc1cc(F)ccc1[C@@H]2c1ccccc1 (single isomer, unassigned) [Compound 77A, (7E,19*R)-3-fluoro-13-hydroxy-19-phenyl-9,10-dihydro-6H,19H-11,18-methanopyrido[2,1-i][1,7,10,11]benzoxatriazacyclotetradecine-12,14-dione] | 5280 | 33200 |
| O=C1c2c(O)c(=O)ccn2N2CN1C/C=C/CCc1ccccc1[C@H]2c1cccc(F)n1 (single isomer, unassigned) [Compound 78B, (16*S,E)-16-(6-fluoropyridin-2-yl)-4-hydroxy-7,10,11,16-tetrahydro-6,17-methanobenzo[k]pyrido[1,2-b][1,2,5]triazacyclotridecine-3,5-dione] | 6430 | 61600 |
| O=C1c2c(O)c(=O)ccn2N2CN1C[C@H]1C[C@@H]1COc1ccccc1[C@@H]2c1ccccc1 (single isomer, unassigned) [Compound 80AA, (1a*S,8*S,17a*S)-14-hydroxy-8-phenyl-1a,2,17,17a-tetrahydro-1H,8H-9,16-methanobenzo[b]cyclopropa[k]pyrido[1,2-f][1]oxa[5,6,9]triazacyclotridecine-13,15-dione] | 167 | > 1000 |
| O=C1c2c(O)c(=O)ccn2N2CN1C[C@@H]1C[C@H]1COc1ccccc1[C@@H]2c1ccccc1 (single isomer, unassigned) [Compound 80AB, (1a*R,8*S,17a*R)-14-hydroxy-8-phenyl-1a,2,17,17a-tetrahydro-1H,8H-9,16-methanobenzo[b]cyclopropa[k]pyrido[1,2-f][1]oxa[5,6,9]triazacyclotridecine-13,15-dione] | 66 | > 10000 |
| O=C1c2c(O)c(=O)ccn2N2CN1C[C@H]1C[C@@H]1COc1ccccc1[C@H]2c1ccccc1 (single isomer, unassigned) [Compound 80BA, (1a*S,8*R,17a*S)-14-hydroxy-8-phenyl-1a,2,17,17a-tetrahydro-1H,8H-9,16-methanobenzo[b]cyclopropa[k]pyrido[1,2-f][1]oxa[5,6,9]triazacyclotridecine-13,15-dione] | > 500 | > 1000 |
| O=C1c2c(O)c(=O)ccn2N2CN1C[C@@H]1C[C@H]1COc1ccccc1[C@H]2c1ccccc1 (single isomer, unassigned) [Compound 80BB, (1a*R,8*R,17a*R)-14-hydroxy-8-phenyl-1a,2,17,17a-tetrahydro-1H,8H-9,16-methanobenzo[b]cyclopropa[k]pyrido[1,2-f][1]oxa[5,6,9]triazacyclotridecine-13,15-dione] | > 500 | > 1000 |
| O=C1c2c(O)c(=O)ccn2N2CN1CCOC/C=C\c1cccc3c1[C@H]2c1ccccc1CC3 (single isomer, unassigned) [Compound 83A, (13Z,23b*R)-6-hydroxy-9,10,12,18,19,23b-hexahydro-1,8-methanobenzo[4,5]cyclohepta[1,2,3-qr]pyrido[1,2-c][9,2,3,6]benzoxatriazacyclotetradecine-5,7-dione] | > 500 | > 1000 |
| O=C1c2c(O)c(=O)ccn2N2CN1CCOC/C=C\c1cccc3c1[C@@H]2c1ccccc1CC3 (single isomer, unassigned) [Compound 83B, (13Z,23b*S)-6-hydroxy-9,10,12,18,19,23b-hexahydro-1,8-methanobenzo[4,5]cyclohepta[1,2,3-qr]pyrido[1,2-c][9,2,3,6]benzoxatriazacyclotetradecine-5,7-dione] | 6 | > 200 |
| O=C1c2c(O)c(=O)ccn2N2CN1CCC=CCOc1c(F)cccc1[C@@H]2c1ccccc1 (single isomer, unassigned) [Compound 84B, (19*S, E/Z)-4-fluoro-13-hydroxy-19-phenyl-9,10-dihydro-6H,19H-11,18-methanopyrido[2,1-i][1,7,10,11]benzoxatriazacyclotetradecine-12,14-dione] | 5 | > 200 |
| CC[C@H]1/C=C/COc2c(F)cccc2[C@@H](c2ccccc2)N2CN1C(=O)c1c(O)c(=O)ccn12 (single isomer, unassigned) [Compound 85AA, (9*S,18*R,E)-9-ethyl-4-fluoro-12-hydroxy-18-phenyl-6,9-dihydro-18H-10,17-methanobenzo[b]pyrido[1,2-f][1]oxa[5,6,9]triazacyclotridecine-11,13-dione] | 3 | > 200 |
| CC[C@@H]1/C=C/COc2c(F)cccc2[C@@H](c2ccccc2)N2CN1C(=O)c1c(O)c(=O)ccn12 (single isomer, unassigned) [Compound 85AB, (9*R,18*R,E)-9-ethyl-4-fluoro-12-hydroxy-18-phenyl-6,9-dihydro-18H-10,17-methanobenzo[b]pyrido[1,2-f][1]oxa[5,6,9]triazacyclotridecine-11,13-dione] | 2 | > 200 |
| CC[C@H]1/C=C/COc2c(F)cccc2[C@H](c2ccccc2)N2CN1C(=O)c1c(O)c(=O)ccn12 (single isomer, unassigned) [Compound 85BA, (9*S,18*S,E)-9-ethyl-4-fluoro-12-hydroxy-18-phenyl-6,9-dihydro-18H-10,17-methanobenzo[b]pyrido[1,2-f][1]oxa[5,6,9]triazacyclotridecine-11,13-dione] | > 500 | > 1000 |
| O=C1c2c(O)c(=O)ccn2N2CN1CCCC/C=C\c1cccc3c1[C@@H]2c1ccccc1CC3 (single isomer, unassigned) [Compound 86B, (13*Z,23b*R)-6-hydroxy-10,11,12,18,19,23b-hexahydro-9H-1,8-methanobenzo[4,5]cyclohepta[1,2,3-qr]pyrido[1,2-c][2,3,6]benzotriazacyclotetradecine-5,7-dione] | 27 | > 2000 |
| O=C1c2c(O)c(=O)ccn2N2CN1CC/C=C\COc1cc(F)c(F)c3c1[C@@H]2c1ccccc1SC3 (single isomer, unassigned) [Compound 88A, (23b*R, Z)-16,17-difluoro-6-hydroxy-10,13,18,23b-tetrahydro-9H-1,8-methano[1]benzothiepino[5,4,3-lm]pyrido[2,1-i][1,7,10,11]benzoxatriazacyclotetradecine-5,7-dione] | > 500 | > 1000 |
| O=C1c2c(O)c(=O)ccn2N2CN1CC/C=C\COc1cc(F)c(F)c3c1[C@H]2c1ccccc1SC3 (single isomer, unassigned) [Compound 88B, (23b*S, Z)-16,17-difluoro-6-hydroxy-10,13,18,23b-tetrahydro-9H-1,8-methano[1]benzothiepino[5,4,3-1m]pyrido[2,1-i][1,7,10,11]benzoxatriazacyclotetradecine-5,7-dione] | 1 | > 200 |
| O=C1c2c(O)c(=O)ccn2N2CN1CC/C=C/COc1cc(F)c(F)c3c1[C@@H]2c1ccccc1SC3 (single isomer, unassigned) [Compound 88C, (23b*R, E)-16,17-difluoro-6-hydroxy-10,13,18,23b-tetrahydro-9H-1,8-methano[1]benzothiepino[5,4,3-lm]pyrido[2,1-i][1,7,10,11]benzoxatriazacyclotetradecine-5,7-dione] | > 500 | > 1000 |
| O=C1c2c(O)c(=O)ccn2N2CN1CC/C=C/COc1cc(F)c(F)c3c1[C@H]2c1ccccc1SC3 (single isomer, unassigned) [Compound 88D, (23b*S, E)-16,17-difluoro-6-hydroxy-10,13,18,23b-tetrahydro-9H-1,8-methano[1]benzothiepino[5,4,3-lm]pyrido[2,1-i][1,7,10,11]benzoxatriazacyclotetradecine-5,7-dione] | 1 | > 100 |
| CC[C@H]1/C=C/COc2cc(F)ccc2[C@@H](c2ccccc2)N2CN1C(=O)c1c(O)c(=O)ccn12 (single isomer, unassigned) [Compound 89AA, (9*S,18*R,E)-9-ethyl-3-fluoro-12-hydroxy-18-phenyl-6,9-dihydro-18H-10,17-methanobenzo[b]pyrido[1,2-f][1]oxa[5,6,9]triazacyclotridecine-11,13-dione] | 10800 | 39300 |
| CC[C@@H]1/C=C/COc2cc(F)ccc2[C@H](c2ccccc2)N2CN1C(=O)c1c(O)c(=O)ccn12 (single isomer, unassigned) [Compound 89BB, (9*R,18*S,E)-9-ethyl-3-fluoro-12-hydroxy-18-phenyl-6,9-dihydro-18H-10,17-methanobenzo[b]pyrido[1,2-f][1]oxa[5,6,9]triazacyclotridecine-11,13-dione] | 3 | > 200 |
| C[C@@H]1N2C/C=C/COc3c(F)cccc3[C@@H](c3ccccc3)N1n1ccc(=O)c(O)c1C2=O (single isomer, unassigned) [Compound 91A, (18*R,19*R,E)-4-fluoro-12-hydroxy-19-methyl-18-phenyl-6,9-dihydro-18H-10,17-methanobenzo[b]pyrido[1,2-f][1]oxa[5,6,9]triazacyclotridecine-11,13-dione] | 3 | > 1000 |
| C[C@H]1N2C/C=C/COc3c(F)cccc3[C@H](c3ccccc3)N1n1ccc(=O)c(O)c1C2=O (single isomer, unassigned) [Compound 91B, (18*S,19*S,E)-4-fluoro-12-hydroxy-19-methyl-18-phenyl-6,9-dihydro-18H-10,17-methanobenzo[b]pyrido[1,2-f][1]oxa[5,6,9]triazacyclotridecine-11,13-dione] | > 500 | > 1000 |
